PubChem BioAssay (NCI)
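Results reflect a 48-hour exposure of cells in 96-well plates to compound at five concentrations. TGI denotes the concentration required for complete inhibition of growth.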

Tests used:
Test in all cases: NCI-60 cell line screen, 48 h
786-0 renal = tested on: 786-0 renal
A549 NSCLC = tested on: A549 NSCLC
ACHN renal = tested on: ACHN renal
BT-549 breast = tested on: BT-549 breast
CAKI-1 renal = tested on: CAKI-1 renal
CCRF-CEM leukemia = tested on: CCRF-CEM leukemia
COLO 205 colon = tested on: COLO 205 colon
DU-145 prostate = tested on: DU-145 prostate
EKVX NSCLC = tested on: EKVX NSCLC
HCC-2998 colon = tested on: HCC-2998 colon
HCT-116 colon = tested on: HCT-116 colon
HCT-15 colon = tested on: HCT-15 colon
HL-60(TB) leukemia = tested on: HL-60(TB) leukemia
HOP-62 NSCLC = tested on: HOP-62 NSCLC
HOP-92 NSCLC = tested on: HOP-92 NSCLC
HS 578T breast = tested on: HS 578T breast
HT29 colon = tested on: HT29 colon
IGROV1 ovarian = tested on: IGROV1 ovarian
K-562 leukemia = tested on: K-562 leukemia
LOX IMVI melanoma = tested on: LOX IMVI melanoma
M14 melanoma = tested on: M14 melanoma
MALME-3M melanoma = tested on: MALME-3M melanoma
MCF7 breast = tested on: MCF7 breast
MDA-MB-231 breast = tested on: MDA-MB-231 breast
MDA-MB-435 = tested on: MDA-MB-435
MOLT-4 leukemia = tested on: MOLT-4 leukemia
NCI-H226 lung = tested on: NCI-H226 lung
NCI-H23 lung = tested on: NCI-H23 lung
NCI-H460 lung = tested on: NCI-H460 lung
NCI-H522 lung = tested on: NCI-H522 lung
NCI/ADR-RES ovarian = tested on: NCI/ADR-RES ovarian
OVCAR-3 ovarian = tested on: OVCAR-3 ovarian
OVCAR-4 ovarian = tested on: OVCAR-4 ovarian
OVCAR-5 ovarian = tested on: OVCAR-5 ovarian
OVCAR-8 ovarian = tested on: OVCAR-8 ovarian
PC-3 prostate = tested on: PC-3 prostate
RPMI-8226 leukemia = tested on: RPMI-8226 leukemia
RXF 393 renal = tested on: RXF 393 renal
SF-268 CNS = tested on: SF-268 CNS
SF-295 CNS = tested on: SF-295 CNS
SF-539 CNS = tested on: SF-539 CNS
SK-MEL-2 melanoma = tested on: SK-MEL-2 melanoma
SK-MEL-28 melanoma = tested on: SK-MEL-28 melanoma
SK-MEL-5 melanoma = tested on: SK-MEL-5 melanoma
SK-OV-3 ovarian = tested on: SK-OV-3 ovarian
SN12C renal = tested on: SN12C renal
SNB-19 CNS = tested on: SNB-19 CNS
SNB-75 CNS = tested on: SNB-75 CNS
SR leukemia = tested on: SR leukemia
SW-620 colon = tested on: SW-620 colon
T-47D breast = tested on: T-47D breast
TK-10 renal = tested on: TK-10 renal
UACC-257 melanoma = tested on: UACC-257 melanoma
UO-31 renal = tested on: UO-31 renal
KM12 colon = tested on: KM12 colon
U251 CNS = tested on: U251 CNS
UACC-62 melanoma = tested on: UACC-62 melanoma

`CC(=O)N1C(Nc2ccccc2)CCN1c1ccccc1` (stereo not drawn) was tested, and the TGI (786-0 renal) was > 10 µM, the TGI (A549 NSCLC) was > 10 µM and the TGI (ACHN renal) was > 10 µM. The TGI (BT-549 breast) was > 10 µM, the TGI (CAKI-1 renal) was > 10 µM and the TGI (CCRF-CEM leukemia) was > 10 µM. For the same compound, the TGI (COLO 205 colon) was > 10 µM, the TGI (DU-145 prostate) was > 10 µM and the TGI (EKVX NSCLC) was > 10 µM. The TGI (HCC-2998 colon) was > 10 µM, the TGI (HCT-116 colon) was > 10 µM and the TGI (HCT-15 colon) was > 10 µM. For the same compound, the TGI (HL-60(TB) leukemia) was > 10 µM, the TGI (HOP-62 NSCLC) was > 10 µM and the TGI (HOP-92 NSCLC) was > 10 µM. For the same compound, the TGI (HS 578T breast) was > 10 µM, the TGI (HT29 colon) was > 10 µM and the TGI (IGROV1 ovarian) was > 10 µM. The TGI (K-562 leukemia) was > 10 µM, the TGI (LOX IMVI melanoma) was > 10 µM and the TGI (M14 melanoma) was > 10 µM. The TGI (MALME-3M melanoma) was > 10 µM, the TGI (MCF7 breast) was > 10 µM and the TGI (MDA-MB-231 breast) was > 10 µM. The TGI (MDA-MB-435) was > 10 µM, the TGI (MOLT-4 leukemia) was > 10 µM and the TGI (NCI-H226 lung) was > 10 µM. For the same compound, the TGI (NCI-H23 lung) was > 10 µM, the TGI (NCI-H460 lung) was > 10 µM and the TGI (NCI-H522 lung) was > 10 µM. The TGI (NCI/ADR-RES ovarian) was > 10 µM, the TGI (OVCAR-3 ovarian) was > 10 µM and the TGI (OVCAR-4 ovarian) was > 10 µM. The TGI (OVCAR-5 ovarian) was > 10 µM, the TGI (OVCAR-8 ovarian) was > 10 µM and the TGI (PC-3 prostate) was > 10 µM. For the same compound, the TGI (RPMI-8226 leukemia) was > 10 µM, the TGI (RXF 393 renal) was > 10 µM and the TGI (SF-268 CNS) was > 10 µM. The TGI (SF-295 CNS) was > 10 µM, the TGI (SF-539 CNS) was > 10 µM and the TGI (SK-MEL-2 melanoma) was > 10 µM. For the same compound, the TGI (SK-MEL-28 melanoma) was > 10 µM, the TGI (SK-MEL-5 melanoma) was > 10 µM and the TGI (SK-OV-3 ovarian) was > 10 µM. The TGI (SN12C renal) was > 10 µM, the TGI (SNB-19 CNS) was > 10 µM and the TGI (SNB-75 CNS) was > 10 µM. For the same compound, the TGI (SR leukemia) was > 10 µM, the TGI (SW-620 colon) was > 10 µM and the TGI (T-47D breast) was > 10 µM. The TGI (TK-10 renal) was > 10 µM, the TGI (UACC-257 melanoma) was > 10 µM and the TGI (UO-31 renal) was > 10 µM.

`COc1ccc(C2=C(Cl)C(=O)N(c3ccc(OC)cc3OC)C(=O)C2(Cl)Cl)cc1` was tested, and the TGI (786-0 renal) was 29 µM, the TGI (A549 NSCLC) was > 100 µM and the TGI (ACHN renal) was 29.1 µM. The TGI (BT-549 breast) was 77.3 µM, the TGI (CAKI-1 renal) was 25.2 µM and the TGI (COLO 205 colon) was 39.4 µM. It also gave a TGI (DU-145 prostate) of 31 µM, a TGI (EKVX NSCLC) of 87.1 µM and a TGI (HCT-116 colon) of 28.9 µM. For the same compound, the TGI (HCT-15 colon) was 27.9 µM, the TGI (HL-60(TB) leukemia) was 69.8 µM and the TGI (HOP-62 NSCLC) was 36.9 µM. For the same compound, the TGI (HOP-92 NSCLC) was 36.6 µM, the TGI (HS 578T breast) was 16.4 µM and the TGI (HT29 colon) was 38.4 µM. The TGI (IGROV1 ovarian) was 44.3 µM, the TGI (K-562 leukemia) was > 100 µM and the TGI (KM12 colon) was 33.6 µM. It also gave a TGI (LOX IMVI melanoma) of 30.8 µM, a TGI (M14 melanoma) of 29.7 µM and a TGI (MALME-3M melanoma) of 35.8 µM. It also gave a TGI (MCF7 breast) of 64.7 µM, a TGI (MDA-MB-231 breast) of 20.5 µM and a TGI (MDA-MB-435) of 34.4 µM. For the same compound, the TGI (MOLT-4 leukemia) was 74 µM, the TGI (NCI-H226 lung) was 27.1 µM and the TGI (NCI-H23 lung) was 31 µM. The TGI (NCI-H460 lung) was > 100 µM, the TGI (NCI-H522 lung) was 36.5 µM and the TGI (NCI/ADR-RES ovarian) was 41.9 µM. It also gave a TGI (OVCAR-3 ovarian) of 25 µM, a TGI (OVCAR-4 ovarian) of 32.2 µM and a TGI (OVCAR-5 ovarian) of 27.6 µM. It also gave a TGI (OVCAR-8 ovarian) of 52.4 µM, a TGI (PC-3 prostate) of 33.5 µM and a TGI (RXF 393 renal) of 57 µM. For the same compound, the TGI (SF-268 CNS) was 65.9 µM, the TGI (SF-295 CNS) was 66.4 µM and the TGI (SF-539 CNS) was 23.5 µM. For the same compound, the TGI (SK-MEL-2 melanoma) was 63.6 µM, the TGI (SK-MEL-28 melanoma) was 36.1 µM and the TGI (SK-MEL-5 melanoma) was 28.1 µM. For the same compound, the TGI (SK-OV-3 ovarian) was > 100 µM, the TGI (SN12C renal) was 13.8 µM and the TGI (SNB-19 CNS) was > 100 µM. For the same compound, the TGI (SNB-75 CNS) was 90.3 µM, the TGI (SR leukemia) was 36.4 µM and the TGI (SW-620 colon) was 30.1 µM. The TGI (T-47D breast) was 30.3 µM, the TGI (TK-10 renal) was 37.7 µM and the TGI (U251 CNS) was 30.2 µM. It also gave a TGI (UACC-257 melanoma) of 39.3 µM, a TGI (UACC-62 melanoma) of 28 µM and a TGI (UO-31 renal) of 37.4 µM.
